Converted amounts (≈) assume the structure as drawn. The source made the active and inactive calls. The calls are words filed in the database; no cut-off is given here. Where a SMILES comes first, the peptide text is derived from it. Bridges are numbered along the chain shown (N, C = ends).
Experiments:
[1] = Immunomodulatory activity in human PBMC assessed as increase in LPS-induced MCP1 production at 25 ug/ml measured after overnight incubation by ELISA; format: functional; settings: dose 25 µg/ml
[2] = system: Pseudomonas aeruginosa; assay: Antibacterial activity against Pseudomonas aeruginosa PAO1 measured after overnight incubation by microtitre plate based spectrophotometric method; format: functional
[3] = system: PBMC; assay: Immunomodulatory activity in human PBMC assessed as increase in LPS-induced IL10 production at 25 ug/ml measured after overnight incubation by ELISA; format: functional; settings: dose 25.0 µg/ml
[4] = system: Klebsiella pneumoniae; assay: Antibiofilm activity against Klebsiella pneumoniae ATTC 13883 incubated for 24 hrs under shaking condition by turbidometric method; format: functional
[5] = system: Pseudomonas aeruginosa; assay: Antibacterial activity against Pseudomonas aeruginosa PA14 measured after overnight incubation by microtitre plate based spectrophotometric method; format: functional
[6] = target: T1, Trypsin (Homo sapiens, UniProt P07477+P07478+P35030); assay: Stability of the compound in pH 8.2 ammonium bicarbonate buffer assessed as trypsin (unknown origin)-mediated drug degradation at 20 ug/ml measured up to 120 mins by RP-HPLC analysis; format: ADME, protein assay; settings: pH 8.2, 2 h, at 20 µg/mL
[7] = system: Acinetobacter baumannii; assay: Antibacterial activity against Acinetobacter baumannii 17918 measured after overnight incubation by microtitre plate based spectrophotometric method; format: functional
[8] = system: PBMC; assay: Immunomodulatory activity in human PBMC assessed as increase in IL-1RA production at 25 ug/ml measured after overnight incubation by ELISA; format: functional, tissue-based; settings: dose 25.0 µg/ml
[9] = Toxicity in CD1 mouse assessed as precipitation under the skin at 10 mg/kg, sc measured after 16 hrs; format: organism-based; settings: in vivo
[10] = system: Acinetobacter baumannii; assay: Antibacterial activity against Acinetobacter baumannii 5015 measured after overnight incubation by microtitre plate based spectrophotometric method; format: functional
[11] = system: Pseudomonas aeruginosa; assay: Antibiofilm activity against Pseudomonas aeruginosa PAO1 incubated for 24 hrs under shaking condition by turbidometric method; format: functional
[12] = system: Staphylococcus aureus; assay: Antibiofilm activity against methicillin-resistant Staphylococcus aureus SAP0017 incubated for 24 hrs under shaking condition by turbidometric method; format: functional
[13] = system: PBMC; assay: Immunomodulatory activity in human PBMC assessed as reduction in LPS-induced IL1beta production at 25 ug/ml measured after overnight incubation by ELISA; format: functional, tissue-based; settings: dose 25.0 µg/ml
[14] = Aggregation property of the compound in sodium phosphate solution at 10 mM by turbidimetric method; format: physicochemical; settings: 10000 µM
[15] = Aggregation property of the compound in RPMI medium with 1% FBS at 1 mg/ml by turbidimetric method; format: physicochemical
[16] = Cytotoxicity against human PBMC assessed as reduction in cell viability at 100 ug/ml measured after 24 hrs by LDH assay; format: tissue-based; settings: dose 100 µg/ml
[17] = system: Escherichia coli; assay: Antibacterial activity against Escherichia coli ATTC 489 measured after overnight incubation by microtitre plate based spectrophotometric method; format: functional
[18] = Aggregation property of the compound in sodium nitrate solution at 10 mM by turbidimetric method; format: physicochemical; settings: 10000 µM
[19] = system: PBMC; assay: Immunomodulatory activity in human PBMC assessed as reduction in LPS-induced TNFalpha production at 25 ug/ml measured after overnight incubation by ELISA; format: functional, tissue-based; settings: dose 25.0 µg/ml
[20] = system: Acinetobacter baumannii; assay: Antibiofilm activity against Acinetobacter baumannii 5015 incubated for 24 hrs under shaking condition by turbidometric method; format: functional
[21] = system: PBMC; assay: Immunomodulatory activity in human PBMC assessed as increase in LPS-induced IL1RA production at 25 ug/ml measured after overnight incubation by ELISA; format: functional; settings: dose 25.0 µg/ml
[22] = system: Staphylococcus aureus; assay: Antibacterial activity against methicillin-resistant Staphylococcus aureus SAP0017 measured after overnight incubation by microtitre plate based spectrophotometric method; format: functional
[23] = Aggregation property of the compound in water at 1 mg/ml by turbidimetric method; format: physicochemical; settings: buffer
[24] = Aggregation property of the compound in saline at 1 mg/ml by turbidimetric method; format: physicochemical; settings: buffer
[25] = Aggregation of the compound in human PBMC assessed as amorphous morphology at 50 ug/ml measured after 4 hrs by microscopic analysis; format: ADME, tissue-based; settings: dose 50 µg/ml
[26] = system: Klebsiella pneumoniae; assay: Antibacterial activity against Klebsiella pneumoniae ATTC 13883 measured after overnight incubation by microtitre plate based spectrophotometric method; format: functional
[27] = Aggregation property of the compound in 5% dextrose at 1 mg/ml by turbidimetric method; format: physicochemical
[28] = system: Staphylococcus aureus; assay: Antibacterial activity against Staphylococcus aureus USA300 LAC infected in CD1 mouse assessed as reduction in dermonecrosis at 7.5 mg/kg, sc administered at infection site measured after 3 days by caliper method relative to control; format: functional; settings: time 3.0 day
[29] = system: Escherichia coli; assay: Antibiofilm activity against Escherichia coli ATTC 489 incubated for 24 hrs under shaking condition by turbidometric method; format: functional
[30] = system: PBMC; assay: Immunomodulatory activity in human PBMC assessed as change in TNFalpha production at 25 ug/ml measured after overnight incubation by ELISA; format: functional, tissue-based; settings: dose 25.0 µg/ml
[31] = system: Staphylococcus aureus; assay: Antibiofilm activity against methicillin-resistant Staphylococcus aureus USA300 LAC incubated for 24 hrs under shaking condition by turbidometric method; format: functional
[32] = system: Acinetobacter baumannii; assay: Antibiofilm activity against Acinetobacter baumannii 17918 incubated for 24 hrs under shaking condition by turbidometric method; format: functional
[33] = system: Staphylococcus aureus; assay: Antibacterial activity against Staphylococcus aureus USA300 LAC infected in CD1 mouse assessed as reduction in bacterial load at 7.5 mg/kg, sc administered at infection site measured after 3 days by colony counting method relative to control; format: functional; settings: time 3.0 day
[34] = system: Staphylococcus aureus; assay: Antibacterial activity against methicillin-resistant Staphylococcus aureus USA300 LAC measured after overnight incubation by microtitre plate based spectrophotometric method; format: functional
[35] = system: Pseudomonas aeruginosa; assay: Antibiofilm activity against Pseudomonas aeruginosa PA14 incubated for 24 hrs under shaking condition by turbidometric method; format: functional
[36] = Aggregation property of the compound in sodium citrate solution at 10 mM by turbidimetric method; format: physicochemical; settings: 10000 µM
[37] = system: PBMC; assay: Immunomodulatory activity in human PBMC assessed as increase in MCP1 production at 25 ug/ml measured after overnight incubation by ELISA; format: functional, tissue-based; settings: dose 25.0 µg/ml
[38] = target: T1, Trypsin; assay: Stability of the compound in pH 8.2 ammonium bicarbonate buffer assessed as trypsin (unknown origin)-mediated drug degradation at 20 ug/ml measured up to 120 mins by MALDI-TOF analysis; format: ADME, protein assay; settings: pH 8.2, 2 h, at 20 µg/mL
[39] = system: Acinetobacter baumannii; assay: Antibiofilm activity against 24 hrs preformed Acinetobacter baumannii 5015 biofilm assessed as reduction in biofilm viability at 7.2 to 30.3 uM by TTC assay relative to control; format: functional; settings: dose microM 7.2-30.3
[40] = system: Klebsiella pneumoniae; assay: Antibiofilm activity against 24 hrs preformed Klebsiella pneumoniae ATTC 13883 biofilm assessed as reduction in biofilm viability at 7.2 to 30.3 uM by TTC assay relative to control; format: functional; settings: dose microM 7.2-30.3
[41] = target: T1, Trypsin; assay: Stability of the compound in pH 8.2 ammonium bicarbonate buffer assessed as trypsin (unknown origin)-mediated drug degradation at 20 ug/ml measured after 120 mins by RP-HPLC analysis; format: ADME, protein assay; settings: buffer, pH 8.2, 2 h, at 20 µg/mL
[42] = target: T1, Trypsin; assay: Stability of the compound in pH 8.2 ammonium bicarbonate buffer assessed as trypsin (unknown origin)-ILPWK formation at 20 ug/ml measured within 30 mins by MALDI-TOF analysis; format: ADME, protein assay; settings: pH 8.2, 0.5 h, dose 20 µg/ml
[43] = system: Pseudomonas aeruginosa; assay: Antibiofilm activity against 24 hrs preformed Pseudomonas aeruginosa PAO1 biofilm assessed as reduction in biofilm viability at 7.2 to 30.3 uM by TTC assay relative to control; format: functional; settings: dose microM 7.2-30.3
[44] = system: Staphylococcus aureus; assay: Antibacterial activity against Staphylococcus aureus USA300 LAC infected in CD1 mouse assessed as dermonecrosis area at 7.5 mg/kg, sc administered at infection site measured after 3 days by caliper method (Rvb > 75 mm2); format: functional; settings: time 3 day
[45] = system: Acinetobacter baumannii; assay: Antibiofilm activity against 24 hrs preformed Acinetobacter baumannii 17918 biofilm assessed as reduction in biofilm viability at 7.2 to 30.3 uM by TTC assay relative to control; format: functional; settings: dose microM 7.2-30.3
[46] = target: T1, Trypsin; assay: Stability of the compound in pH 8.2 ammonium bicarbonate buffer assessed as trypsin (unknown origin)-mediated compound cleavage at carboxy-terminal side of arginine at 20 ug/ml measured within 30 mins by RP-HPLC analysis; format: ADME, protein assay; settings: pH 8.2, 0.5 h, at 20 µg/mL
[47] = system: Pseudomonas aeruginosa; assay: Antibiofilm activity against 24 hrs preformed Pseudomonas aeruginosa PA14 biofilm assessed as reduction in biofilm viability at 7.2 to 30.3 uM by TTC assay relative to control; format: functional; settings: dose microM 7.2-30.3
[48] = system: Escherichia coli; assay: Antibiofilm activity against 24 hrs preformed Escherichia coli ATTC 489 biofilm assessed as reduction in biofilm viability at 7.2 to 30.3 uM by TTC assay relative to control; format: functional; settings: dose microM 7.2-30.3

For CC[C@H](C)[C@@H]1NC(=O)[C@H](CCCNC(=N)N)NC(=O)[C@H](C(C)C)NC(=O)[C@H](C)NC(=O)[C@H](C(C)C)NC(=O)[C@H]([C@@H](C)CC)NC(=O)[C@H](CC(C)C)NC(=O)[C@H](CCCNC(=N)N)NC(=O)[C@H](C(C)C)NC(=O)[C@@H](N)CSSC[C@@H](C(N)=O)NC(=O)[C@H](CCCNC(=N)N)NC(=O)[C@H](CCCNC(=N)N)NC(=O)[C@H](Cc2c[nH]c3ccccc23)NC1=O (H-CVRLIVAVRIWRRC-NH2; disulfide 1-14), the Activity [1] was 35%, the MIC [2] was 57.4 µM (≈ 99.9 µg/mL) and the Activity [3] was “Active”. The MBEC [4] was 28.7 µM, the MIC [5] was 57.4 µM (≈ 99.9 µg/mL) and the Stabilty [6] was “Stable”. For the same compound, the MIC [7] was 57.4 µM (≈ 99.9 µg/mL), the Activity [8] was “Active” and the Activity [9] was “Toxic”. For the same compound, the MIC [10] was 57.4 µM (≈ 99.9 µg/mL), the MBEC [11] was 57.4 µM and the MBEC [12] was 18.3 µM. For the same compound, the Activity [13] was “Active”, the Activity [14] was “Active” and the Activity [15] was “Active”. For the same compound, the Activity [16] was “Toxic”, the MIC [17] was 28.7 µM (≈ 49.9 µg/mL) and the Activity [18] was “Active”. For the same compound, the Activity [19] was “Active”, the MBEC [20] was 57.4 µM and the Activity [21] was “Active”. The MIC [22] was 28.7 µM (≈ 49.9 µg/mL), the Activity [23] was “Not Active” and the Activity [24] was “Not Active”. The Activity [25] was “Not Active”, the MIC [26] was 28.7 µM (≈ 49.9 µg/mL) and the Activity [27] was “Not Active”. For the same compound, the Activity [28] was “inactive”, the MBEC [29] was 36.7 µM and the Activity [30] was “inactive”. The MBEC [31] was 18.3 µM, the MBEC [32] was 57.4 µM and the Activity [33] was “inactive”. The MIC [34] was 28.7 µM (≈ 49.9 µg/mL), the MBEC [35] was 57.4 µM and the Activity [36] was “Active”. For the same compound, the Activity [37] was “Active” and the Stabilty [38] was “Stable”.
H-VRLIVAVRIWRR-NH2 gave an Activity [1] of 35%, an MIC [2] of 32.5 µM and an MBEC [4] of 10.4 µM. The Activity [39] was 70%, the Activity [40] was 70% and the MIC [5] was 32.5 µM. The Stabilty [6] was “Stable”, the MIC [7] was 32.5 µM and the Activity [8] was “Active”. The Activity [9] was “Toxic”, the Stabilty [41] was “Unstable” and the Drug metabolism [42] was “Metabolite_Detected”. The MIC [10] was 32.5 µM, the MBEC [11] was 16.2 µM and the Activity [43] was 70%. The Activity [13] was “Active”, the Activity [14] was “Active” and the Activity [15] was “Active”. The Activity [16] was “Toxic”, the MIC [17] was 65.8 µM and the Activity [18] was “Active”. For the same compound, the Activity [19] was “Active”, the MBEC [20] was 16.2 µM and the Activity [44] was 30 mm2. The MIC [22] was 32.5 µM, the Activity [23] was “Not Active” and the Activity [24] was “Not Active”. For the same compound, the Activity [25] was “Active”, the Activity [45] was 70% and the MIC [26] was 16.2 µM. The Activity [27] was “Not Active”, the Stabilty [46] was “Unstable” and the MBEC [29] was 10.4 µM. For the same compound, the Activity [30] was “inactive”, the Activity [47] was 70% and the MBEC [31] was 7.8 µM. For the same compound, the MBEC [32] was 16.2 µM, the MIC [34] was 32.5 µM and the MBEC [35] was 16.2 µM. For the same compound, the Activity [36] was “Active”, the Activity [37] was “Active” and the Stabilty [38] was “Stable”. The Activity [48] was 70%.
